Measurements taken from ChEMBL document CHEMBL1201862, “PubChem BioAssay data set” (2004).
Active and inactive are the calls of the source.

Columns and labels:
P388/ADR = experiment: cells; type: functional; details: Mus musculus
SN12K1 = experiment: cells; type: functional; details: Homo sapiens
P388 = experiment: cells; type: functional; details: Mus musculus
[1] = luciferase reporter signal suppression in cells – H4 neuroglioma cells, luminescence, dose response (AID 1990); type: functional, cell-based
[2] = Luminescence Cell-Based Dose Response HTS to Identify Inhibitors of 5'UTR Stem-Loop Driven Prion Protein mRNA Translation in H4 Neuroglioblastoma Cells. [Related pubchem assays: 1827 (Project Summary), 1813 (Primary HTS)]; type: functional
[3] = alpha-synuclein stem-loop luciferase translation blockers – H4 neuroglioma cells, luminescence, confirmation (AID 1988); type: functional, cell-based
[4] = biological target: Luciferin 4-monooxygenase (Photinus pyralis, UniProt P08659); experiment: inhibition of purified Photinus pyralis luciferase – biochemical, luminescence, dose response (AID 1891)
[5] = Luminescence Cell-Based Dose Confirmation HTS to Identify Inhibitors of Platelet Dense Granule Release. [Related pubchem assays: 1663 (Primary HTS), 1678 (Summary of Project)]; type: functional
[6] = system: Streptococcus sp. 'group A'; experiment: Streptococcus pyogenes SK(-)GAS viability under kanamycin – luminescence, BacTiterGlo, confirmation, counter-screen for streptokinase expression inhibitor project, dose response (AID 1900); type: functional, organism-based
cells [7] = type: functional, cell-based
cells [8] = type: functional, cell-based; remark: listed apart in the source
Streptococcus = experiment: GAS UMAA2166 growth inhibition – luminescence, BacTiterGlo, counter-screen for streptokinase expression inhibitor project, dose response (AID 1915); type: functional, organism-based;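 also: potency for reduction of bacterial viability or growth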
INS1 = experiment: INS-1E survival protection against cytokine death – cell-based, luminescence, retest, dose response (AID 449756); type: functional; details: Rattus norvegicus;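 also: cell death triggered by IL-1 beta plus TNF-alpha plus IFN-gamma mixture; protective hits raise ATP signal compared with cytokine alone wells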
[9] = biological target: T1, Calpain-2 catalytic subunit (Sus scrofa, UniProt P43367); experiment: m-calpain protease blockers, concentration series – biochemical, fluorogenic peptide substrate, dose response (AID 1420); type: functional
T1 sequence (P43367 whole entry): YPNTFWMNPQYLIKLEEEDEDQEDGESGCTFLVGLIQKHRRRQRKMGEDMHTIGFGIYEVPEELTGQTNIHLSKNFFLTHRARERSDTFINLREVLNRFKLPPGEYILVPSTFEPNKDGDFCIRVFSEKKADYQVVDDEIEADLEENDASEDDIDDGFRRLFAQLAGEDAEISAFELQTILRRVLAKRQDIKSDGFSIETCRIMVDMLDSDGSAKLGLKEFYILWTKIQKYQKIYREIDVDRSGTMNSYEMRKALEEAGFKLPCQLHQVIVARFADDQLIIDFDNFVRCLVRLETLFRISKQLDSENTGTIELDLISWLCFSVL

[10] = biological target: T2, Ubiquitin-conjugating enzyme E2 N (Homo sapiens, UniProt P61088); type: functional;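 also: Dose-response confirmation in a TR-FRET assay detecting UBC13-driven polyubiquitin chain formation, inhibition measured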
T2 sequence (P61088 whole entry): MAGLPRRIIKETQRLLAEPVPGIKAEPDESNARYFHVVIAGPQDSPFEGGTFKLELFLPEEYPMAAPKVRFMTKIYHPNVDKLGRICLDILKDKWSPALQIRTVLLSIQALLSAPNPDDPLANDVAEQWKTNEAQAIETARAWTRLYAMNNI

[11] = biological target: Induced myeloid leukemia cell differentiation protein Mcl-1 (Homo sapiens, UniProt Q07820); type: functional
[12] = biological target: T3, Heat shock factor protein 1 (Mus musculus, UniProt P38532); experiment: enhancement of HSF1-driven luciferase signal – cell-based, NIH3T3, luminescence, dose retest, confirmation (AID 435004); type: functional;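 also: stress induced by proteasome inhibitor MG132 added 30 min after compound; luciferase reporter driven by HSF1 response element in NIH3T3 cells; actives raise luminescence as potentiators of the MG132 stress response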
T3 sequence (P38532 whole entry): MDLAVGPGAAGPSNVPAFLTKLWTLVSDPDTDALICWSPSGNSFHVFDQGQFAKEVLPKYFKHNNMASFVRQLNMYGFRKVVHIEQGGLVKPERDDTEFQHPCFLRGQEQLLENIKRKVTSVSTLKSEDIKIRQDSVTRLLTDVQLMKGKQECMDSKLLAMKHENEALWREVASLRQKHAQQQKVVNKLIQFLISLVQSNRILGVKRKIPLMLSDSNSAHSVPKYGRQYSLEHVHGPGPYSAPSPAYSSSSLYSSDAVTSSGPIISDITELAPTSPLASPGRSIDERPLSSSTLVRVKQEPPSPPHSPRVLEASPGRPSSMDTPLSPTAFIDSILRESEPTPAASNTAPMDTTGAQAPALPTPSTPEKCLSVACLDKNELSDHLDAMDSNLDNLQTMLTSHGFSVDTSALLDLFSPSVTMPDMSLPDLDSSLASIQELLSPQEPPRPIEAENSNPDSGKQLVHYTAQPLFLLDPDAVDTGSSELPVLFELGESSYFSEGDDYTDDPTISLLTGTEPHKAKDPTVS

[13] = biological target: T4, Polyadenylate-binding protein 1 (Homo sapiens, UniProt P11940); experiment: MLLE binding blockers, Cy5 peptide tracer – biochemical, fluorescence polarization, Cy5-PAM2 peptide, secondary, miRNA deadenylation inhibitor project, dose response (AID 602260); type: functional; details: read-out: IC50_Mean
[14] = biological target: T4, Polyadenylate-binding protein 1; experiment: MLLE domain peptide-binding blockers, IC50 – biochemical, fluorescence polarization, FITC-PAM2 peptide, dose response (AID 602259); type: functional; details: read-out: IC50_Mean
[15] = Luminescence Cell-Based Dose Retest to Confirm Inhibitors of Cancer Stem Cells. [Related pubchem assays (depositor defined):AID2717, AID2721]; type: functional; details: Homo sapiens

T4 sequence (P11940 whole entry, the tested form may be a part): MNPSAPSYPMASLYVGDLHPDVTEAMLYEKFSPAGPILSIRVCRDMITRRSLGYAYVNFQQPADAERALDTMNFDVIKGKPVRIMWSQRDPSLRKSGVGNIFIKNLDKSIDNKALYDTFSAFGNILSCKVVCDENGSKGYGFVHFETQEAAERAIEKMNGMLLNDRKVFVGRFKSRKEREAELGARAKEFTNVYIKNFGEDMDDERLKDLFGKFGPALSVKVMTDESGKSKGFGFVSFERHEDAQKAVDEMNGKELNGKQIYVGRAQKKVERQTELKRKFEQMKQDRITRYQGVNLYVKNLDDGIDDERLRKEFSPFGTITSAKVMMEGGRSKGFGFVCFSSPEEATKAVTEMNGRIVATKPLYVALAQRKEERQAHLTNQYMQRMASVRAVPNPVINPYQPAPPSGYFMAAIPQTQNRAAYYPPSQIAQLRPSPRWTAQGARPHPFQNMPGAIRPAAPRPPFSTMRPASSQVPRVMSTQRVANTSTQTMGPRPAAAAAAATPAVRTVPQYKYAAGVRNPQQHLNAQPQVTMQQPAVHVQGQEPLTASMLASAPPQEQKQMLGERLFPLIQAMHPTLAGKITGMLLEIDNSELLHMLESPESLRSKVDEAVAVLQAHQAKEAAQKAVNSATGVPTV
Chain of Induced myeloid leukemia cell differentiation protein Mcl-1 (Q07820 whole entry): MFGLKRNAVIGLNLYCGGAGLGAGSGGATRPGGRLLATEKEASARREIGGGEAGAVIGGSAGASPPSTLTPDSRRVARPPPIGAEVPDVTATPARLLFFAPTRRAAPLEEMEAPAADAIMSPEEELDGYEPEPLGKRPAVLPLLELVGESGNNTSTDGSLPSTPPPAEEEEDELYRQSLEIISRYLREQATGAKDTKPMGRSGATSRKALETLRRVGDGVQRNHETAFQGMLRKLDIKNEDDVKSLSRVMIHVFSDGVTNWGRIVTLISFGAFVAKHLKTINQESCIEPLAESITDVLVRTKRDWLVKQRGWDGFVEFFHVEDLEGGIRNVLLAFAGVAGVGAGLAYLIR
Chain of Luciferin 4-monooxygenase (P08659 whole entry): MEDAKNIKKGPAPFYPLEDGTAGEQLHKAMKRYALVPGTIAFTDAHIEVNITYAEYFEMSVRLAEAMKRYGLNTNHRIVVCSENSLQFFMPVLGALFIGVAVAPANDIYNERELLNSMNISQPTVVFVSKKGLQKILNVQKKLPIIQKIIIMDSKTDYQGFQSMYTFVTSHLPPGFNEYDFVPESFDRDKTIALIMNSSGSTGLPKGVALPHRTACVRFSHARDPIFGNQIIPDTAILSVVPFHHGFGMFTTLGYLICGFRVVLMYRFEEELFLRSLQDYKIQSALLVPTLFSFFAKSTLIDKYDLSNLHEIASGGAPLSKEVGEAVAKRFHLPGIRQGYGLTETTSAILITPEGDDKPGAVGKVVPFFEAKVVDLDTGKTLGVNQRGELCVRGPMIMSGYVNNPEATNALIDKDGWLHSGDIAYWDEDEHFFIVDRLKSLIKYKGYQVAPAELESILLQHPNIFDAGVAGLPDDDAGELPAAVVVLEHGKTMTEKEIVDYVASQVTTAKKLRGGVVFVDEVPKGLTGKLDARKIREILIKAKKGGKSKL

With `C=C1C(=O)OC2CC1CCC1(C)OC1CCC(C)=CCCC2(C)O` (stereo unspecified) the GI50 (P388/ADR) was 0.463 µM (active), the GI50 (SN12K1) was 4.35 µM (inactive) and the GI50 (P388) was 1.08 µM (active).

In the case of `c1ccc2nc(-c3ccc(N4CCOCC4)cc3)ccc2c1`, the EC50 [1] is reported as 4.01 µM (inconclusive), the EC50 [2] is reported as 0.757 µM (active) and the EC50 [3] is reported as 0.413 µM (inconclusive). For the same compound, the EC50 [4] was 0.793 µM (active) and the EC50 [5] was 3.7 µM (active).

For `O=C(N/N=C/c1ccccc1O)c1ccc2c(c1)OCO2`, the EC50 [6] was 4.24 µM (active), the EC50 (cells [7]) was 101 µM (active) and the EC50 (cells [8]) was 12.6 µM (active). The EC50 (Streptococcus) was 4.46 µM (active) and the AC50 (INS1) was 2.58 µM (active).

In the case of `O=C(c1ccccc1)c1cn(CC(=O)N2CCCc3ccccc32)c2ccccc12`, the IC50 [9] is reported as < 0.4 µM (not active).

For `Cc1[nH]n(-c2ccc(C(=O)O)cc2)c(=O)c1CCO`, the IC50 [9] was > 50 µM (not active).

For `COc1ccc2cc1Oc1ccc(cc1)C[C@H]1c3cc(c(OC)cc3CCN1C)Oc1c(OC)c(OC)cc3c1[C@H](C2)N(C)CC3` [FANCHININ], the GI50 (P388/ADR) was 3.05 µM (inactive), the GI50 (SN12K1) was 7.06 µM (inactive) and the GI50 (P388) was 1.77 µM (inactive).

For `ClCc1ccc2ccc3ccc(CCl)nc3c2n1`, the GI50 (P388/ADR) was 0.883 µM (active), the GI50 (SN12K1) was 1.87 µM (inactive) and the GI50 (P388) was 1.51 µM (inactive).

With `CC[C@@H](C)[C@@H]1CN([C@@H](CN2CCC[C@H]2CN2C(N)=NC[C@H]2CC(C)C)C(C)C)C(=N)N1CCCC1CCCC1` the IC50 [10] was > 20 µM (inactive).

For `O=C(c1ccccc1)c1ccc2nc(-c3ccco3)c(-c3ccco3)nc2c1`, the IC50 [11] was 6.46 µM (active) and the EC50 [12] was 32.3 µM (active).

With `O=C1C=CC(=O)c2c(Cl)ccc(O)c21` the GI50 (P388/ADR) was 0.344 µM (active), the GI50 (SN12K1) was 25.6 µM (inactive) and the GI50 (P388) was 0.499 µM (active).

In the case of `CC1NC(=O)C(C)C(c2ccccc2)N(N=O)C1c1ccccc1` (stereo unspecified), the GI50 (P388/ADR) is reported as 0.933 µM (active), the GI50 (SN12K1) is reported as > 100 µM (inactive) and the GI50 (P388) is reported as 21 µM (inactive).

With `CC(=O)c1c(S)nc(-c2ccccc2)nc1N1CCCC1` the IC50 [9] was > 50 µM (not active).

With `NS(=O)(=O)c1ccc(CCNC(=O)c2cc(-c3ccco3)nc3ccccc23)cc1` the IC50 [10] was > 20 µM (inactive).

With `CC(O)CCC(=O)c1ccoc1` (stereo unspecified) the GI50 (P388/ADR) was 3660 µM (inactive), the GI50 (SN12K1) was 7230 µM (inactive) and the GI50 (P388) was 4940 µM (inactive).

For `COc1cc(NS(=O)(=O)c2ccc(NC(=S)NC(=O)c3sc4cc(F)ccc4c3Cl)cc2)nc(OC)n1`, the IC50 [11] was 4.37 µM (not active), the IC50 [13] was > 66 µM (inactive) and the IC50 [14] was > 66 µM (inactive).

For `CC(C)(C)C1CCC(C(=O)OCC(=O)N2CCN(C(=O)c3ccco3)CC2)CC1` (stereo unspecified), the IC50 [9] was 29.8 µM (not active).

With `CCCCCc1cc(=O)oc2c(C(CCN3CCCCC3)c3cc(OC)c(OC)c(OC)c3)c(OC)cc(OC)c12` (stereo unspecified) the AC50 [15] was 6.58 µM (active) and the IC50 [10] was > 20 µM (inactive).
